Data on 2 compounds can be found in patent US10682330B2, “Method for producing liposome encapsulating paclitaxel monoglycoside and/or docetaxel monoglycoside” (ENSUIKO SUGAR REFINING CO., LTD., priority 2012, dated 2020).

SMILES strings stand for the structures. ≈ marks a conversion by molar mass, not a printed value.

By IC50 is commonly meant the midpoint of a concentration-inhibition curve. A high value points to a need for much substance.

In data set [1] the test system is SK-BR-3, human-derived breast cancer cell. Briefly: Anti-cancer activity, MTT assay (Test Example 3). The format is cell-based. The settings on record: PTX, gPTX dissolved in DMSO, liposomes prepared with gPTX in 40% ethylene glycol solution; for IC50: Homo sapiens. How it is done: IC50 of each of the PTX and gPTX dissolved in DMSO, and gPTX-L and gPTX-IL prepared by using gPTX dissolved in a 40% (volume) ethylene glycol solution was measured by an MTT assay. As a test target cell, SK-BR-3, which is a human-derived breast cancer cell, was used. IT50 was also calculated. IT50 indicates the half of time required for attaining the drug concentration at which all of the cells die, and can be easily calculated based on the survival curve obtained by plotting the percentage of cell viability to the time axis.

Data set [2] can be described thus: Solubility in mixed solvent Cremophor EL:ethanol:PBS (pH 7.4) 12:12:76 (Test Example 1). The data set is classed as physicochemical. The settings on record: for solubility: Cremophor EL:ethanol:PBS 12:12:76 mixed solvent, pH 7.4, aqueous with cosolvent or surfactant or cyclodextrin, ethanol, Cremophor EL, PBS pH 7.4 (12:12:76); for Concentration at which dissolved: Cremophor:ethanol:PBS (pH 7.4) 12:12:76. Here is the method: Powdery gPTX and paclitaxel (hereinbelow, referred to as PTX in the Examples) produced by the method disclosed in NPL 1 were individually weighed in predetermined amounts, followed by addition of ethanol (120 μL) and mixing using a vortex. Cremophor® EL (available from Wako Pure Chemical Industries. Ltd.) (120 μL) was further mixed with each solution liquid, and then PBS (pH 7.4, 760 μL) was mixed. The solubility of each of the gPTX and PTX was confirmed.

In data set [3] the test system is HT-29, colon adenocarcinoma cell. Briefly: Anti-cancer activity, MTT assay on HT-29 (Test Example 9). The data set is classed as cell-based. The conditions noted are these: for IC100 / IC50: 72 hours; for IC50: Homo sapiens; for IT50: drug added at IC100. How it is done:
(§1) In the same manner as in Test Example 3, anti-cancer activity was measured. SK-BR-3, which is a human-derived breast cancer cell, and HT-29, which is a colon adenocarcinoma cell, were used. Specifically, cells were seeded to a 96 well-plate at 5000 cells/well, and incubated for 24 hours. Then, PTX, gPTX, gPTX-L, and gPTX-IL were separately added at different concentrations, followed by incubation.
(§2) 72 hours later, the percentage of cell viability was calculated by an MTT assay. First, the concentration (IC50) at which 50% of the cells die was obtained from the survival curve. Subsequently, the time (IT50) at which 50% of the cells die was obtained from the survival curve. After the cells were seeded, PTX, gPTX, gPTX-L, or gPTX-IL was added at a concentration attaining IC100, which was obtained from the survival curve. Incubation was then performed for 1, 2, 6, 12, 24, 48, or 72 hours, and then medium exchange was performed. 72 hours after the drug addition, the MTT assay was performed in the same manner as in the above experiment to obtain the survival rate, and calculate the IT50 therefrom.
A general note: Formazan colour is commonly taken as a measure of viable cells.

Data set [4] relates to SK-BR-3, human-derived breast cancer cell. Nature of the data set: Anti-cancer activity, MTT assay on SK-BR-3 (Test Example 9). The format is cell-based. The conditions noted are these: for IC50: Homo sapiens; for IC50 / IT50: SK-BR-3; for IC50 / IC100: SK-BR3, 72 hours; for IT50: drug added at IC100. How it is done:
as §1, §2

Data set [5] can be described thus: Encapsulation efficiency and loading efficiency in liposome by HPLC (Test Example 2). The format is physicochemical. The settings on record: drug solution in 40% EG (1 mg/mL), comparative example. Here is the method:
Subsequently, after the eggplant flask was immersed in a hot bath at 60° C. for five minutes, a gPTX solution (1 ml) (Cremophor:ethanol:ultra-pure water=12:12:76, volume ratio) adjusted to a concentration of 20 mg/ml, or a PTX solution (Cremophor:ethanol:ultra-pure water=12:12:76, volume ratio) at a concentration of 2 mg/ml was added thereto to dissolve the lipid film, thus preparing a multilamellar vesicle (MLV).
In a comparative example, the above-mentioned 1 mg/ml gPTX solution (10 mM phosphate buffer containing 40% (volume) ethylene glycol) was used in place of the 20 mg of gPTX solution to encapsulate gPTX in a liposome.
The efficiency of paclitaxel monoglycoside encapsulated in the obtained liposome or immunoliposome was calculated as follows. First, the standard curve of each of the gPTX and PTX was obtained. […]
Next, 0.1% Triton X-100 ( 1/10 volume) was added to a prepared liposome, and the liposome was broken by sonication. Thereafter, the solution (10 μl) was measured by HPLC, and the encapsulated drug amount was obtained using the standard curve. […]
Using the following formulae (1) and (2), the encapsulation efficiency (EE) and loading efficiency (LE) were calculated based on the obtained drug amount. […]

Another data set deals with HT-29 tumor. Nature of the data set: In vivo anti-cancer activity, tumor volume (Test Example 11). Also noted: species or system ICR-nu/nu mouse. The settings on record: tail vein two times, interval 3 hours; total gPTX 150 mg/kg, trastuzumab 200 mg/kg; N=4. An excerpt: (§3) HT-29 cells were subcutaneously administered at 3.0×10^6 cells to each ICR-nu/nu mouse (male, 5 weeks old). When the tumor volume became about 50 to 200 mm^3, the above gPTX, the gPTX-L produced in Test Example 7, the gPTX-IL produced in Test Example 9, trastuzumab, the liposome (empty L) encapsulating no gPTX and having no antibody (trastuzumab) produced in Test Example 9, the liposome (empty IL) encapsulating […] and having an antibody (trastuzumab) produced in Test Example 9, a CEP buffer, or PBS was administered via tail vein two times at an interval of 3 hours (N=4). The dose per each was 200 μl/20 g. The total dose of gPTX was 150 mg/kg, and the total dose of trastuzumab was 200 mg/kg. The tumor volume shift after administration was observed. […] The tumor volume was calculated from the formula (3) below. Tumor volume=(tumor smallest diameter^2×tumor longest diameter)/2 (3)

The next data set relates to ICR-nu/nu mouse. Briefly: Body weight shift and survival in HT-29 bearing mice (Test Example 11). The conditions noted are these: total dose of gPTX 150 mg/kg; N=4. The data set is classed as in vivo.
Source text: as §3
The body weight shift and the survival rate in each group were measured. FIGS. 6 to 9 show the results.

The nature of data set [6]: Solubility in 10 mM phosphate buffer containing 10 to 40% ethylene glycol (Test Example 1). The conditions noted are these: aqueous with cosolvent or surfactant or cyclodextrin. The format is physicochemical. Here is the method: In all cases, gPTX was mixed so that the concentration became 1 mg/mL.
In another data set the test system is BALB/c mouse. The conditions noted are these: in vivo. How it is done:
Specifically, gPTX, gPTX-L, a CEP buffer (Cremophor:ethanol:ultra-pure water=12:12:76; volume ratio), or PBS was administered via tail vein to each BALB/c mouse (female, 6 weeks old) two times with an interval of three hours (N=4). The dose per each was 200 μl/20 g. The total dose of gPTX was 150 or 100 mg/kg in view of gPTX. Observation over time was performed during and after the administration.

On to `CC(=O)O[C@H]1C(=O)[C@@]2(C)[C@H]([C@H](OC(=O)c3ccccc3)[C@]3(O)C[C@H](OC(=O)[C@H](O)[C@@H](NC(=O)c4ccccc4)c4ccccc4)C(C)=C1C3(C)C)[C@]1(OC(C)=O)CO[C@@H]1C[C@@H]2O` [PTX, paclitaxel], for which the half-maximal inhibitory concentration (IC50) in data set [1] stood at 5.91 nM; in data set [3], 1.3 ± 0.5 nM; in data set [4] it was 5.5 ± 1.3 nM. In addition, the “IT50” value in [1] amounted to 15.9 h; in data set [3] it was 11.9 h; in [4], 9.8 h. Moreover, the solubility in data set [2] (Concentration 2 mg/ml) is above 2000 µg/mL; in [2] (Concentration 3 mg/ml), below 3000 µg/mL; in data set [2] (Concentration 10 mg/ml), below 3000 µg/mL; in data set [2] (Concentration 20 mg/ml), below 3000 µg/mL. Further, the “Concentration at which dissolved” value in data set [2] is reported as “about 2 mg/ml”. Further, the results for the IC100 in [3] and in data set [4] were 10 nM and 30 nM, respectively. Also, the “EE (encapsulation efficiency)” value in data set [5] is listed as “not encapsulated in the liposome”.
With `CC(=O)O[C@H]1C(=O)[C@@]2(C)C([C@H](OC(=O)c3ccccc3)[C@@]3(O)CC1=C(C)C(OC(=O)[C@H](O)[C@@H](NC(=O)c1ccccc1)c1ccccc1)C3)[C@]1(OC(C)=O)CO[C@@H]1C[C@H]2OC(=O)COC1OC(CO)C(O)C(O)C1O` (stereo partly drawn) [gPTX, 7-α-glucosyloxyacetylpaclitaxel], the values for the 50% inhibitory concentration (IC50) in data set [1], in data set [3] and in data set [4] were 46 nM, 11 ± 0.8 nM and 18.9 ± 1.1 nM, respectively. The “IT50” value came to 18.7 h in [1], 9.6 h in data set [3] and 8.3 h in data set [4]. Further, the solubility in data set [2] (Concentration 2 mg/ml) is above 20000 µg/mL; in data set [2] (Concentration 10 mg/ml) it was above 20000 µg/mL; in [2] (Concentration 20 mg/ml), above 20000 µg/mL; in [2] (Concentration 30 mg/ml), below 30000 µg/mL; in [6] (Ethylene glycol (EG) 10%, 10 mM phosphate buffer, read-out: Solubility of 1 mg/mL gPTX), below 1000 µg/mL; in data set [6] (Ethylene glycol (EG) 20%, 10 mM phosphate buffer, read-out: Solubility of 1 mg/mL gPTX), below 1000 µg/mL. For the same compound, the solubility is below 1000 µg/mL in data set [6] (Ethylene glycol (EG) 30%, 10 mM phosphate buffer, read-out: Solubility of 1 mg/mL gPTX); above 1000 µg/mL in data set [6] (Ethylene glycol (EG) 40%, 10 mM phosphate buffer, read-out: Solubility of 1 mg/mL gPTX); around 1000 µg/mL (≈ 956 µM) in data set [6] (PBS containing 40% (volume) ethylene glycol, read-out: Solubility of gPTX). Also, the “Concentration at which dissolved” value in data set [2] stood at 20000 µg/mL. Besides, the “Tumor growth inhibition effect (tumor volume)” value in the data set with HT-29 tumor was “remarkably excellent anti-tumor growth inhibition effect”. The IC100 stood at 50 nM in [3] and 100 nM in data set [4]. Also, the Body weight shift entry in the data set with ICR-nu/nu mouse is given as “remarkable body weight loss”. Besides, the Deaths after administration result in the data set with ICR-nu/nu mouse is “two mice died in three hours after the administration, and one died one week after the administration”. The “Body weight change (FIG. 4)” value in the data set with BALB/c mouse is reported as “significant body weight loss”. For the same compound, the “Mice dead one day after the administration (FIG. 3)” value in the data set on BALB/c mouse is listed as “three”.
